Reference: ChEMBL document CHEMBL6087453, “Minimalist Natural ORPphilin Macarangin B Delineates OSBP Biological Function” (J Med Chem, 2025)

Assays:
in vitro [1] = details: human, RPE-1 cells (TERT-RPE1)
Description: Cytotoxicity against human RPE-1 cells assessed as inhibition of cell proliferation incubated for 72 hrs by celltiter-glo assay

in vitro [2] = details: human, HeLa cells
Description: Cytotoxicity against human HeLa cells assessed as inhibition of cell proliferation incubated for 72 hrs by celltiter-glo assay

A549 = assay: cells; details: Homo sapiens, A549, 72 h
Description: Cytotoxicity against human A549 cells assessed as inhibition of cell proliferation incubated for 72 hrs by celltiter-glo assay

MCF7 = assay: cells; details: Homo sapiens, MCF7, 72 h
Description: Cytotoxicity against human MCF7 cells assessed as inhibition of cell proliferation incubated for 72 hrs by celltiter-glo assay

in vitro [3] = details: human, MRC5 cells
Description: Cytotoxicity against human MRC5 cells assessed as inhibition of cell proliferation incubated for 72 hrs by celltiter-glo assay

MDA-MB-231 = assay: cells; details: Homo sapiens, MDA-MB-231, 72 h
Description: Cytotoxicity against human MDA-MB-231 cells assessed as inhibition of cell proliferation incubated for 72 hrs by celltiter-glo assay

[4] = target: T1, Oxysterol-binding protein 1 (Homo sapiens, UniProt P22059); assay: Binding affinity to OSBP (unknown origin) ORD domain assessed as dissociation constant by FRET assay
T1 sequence (P22059 whole entry): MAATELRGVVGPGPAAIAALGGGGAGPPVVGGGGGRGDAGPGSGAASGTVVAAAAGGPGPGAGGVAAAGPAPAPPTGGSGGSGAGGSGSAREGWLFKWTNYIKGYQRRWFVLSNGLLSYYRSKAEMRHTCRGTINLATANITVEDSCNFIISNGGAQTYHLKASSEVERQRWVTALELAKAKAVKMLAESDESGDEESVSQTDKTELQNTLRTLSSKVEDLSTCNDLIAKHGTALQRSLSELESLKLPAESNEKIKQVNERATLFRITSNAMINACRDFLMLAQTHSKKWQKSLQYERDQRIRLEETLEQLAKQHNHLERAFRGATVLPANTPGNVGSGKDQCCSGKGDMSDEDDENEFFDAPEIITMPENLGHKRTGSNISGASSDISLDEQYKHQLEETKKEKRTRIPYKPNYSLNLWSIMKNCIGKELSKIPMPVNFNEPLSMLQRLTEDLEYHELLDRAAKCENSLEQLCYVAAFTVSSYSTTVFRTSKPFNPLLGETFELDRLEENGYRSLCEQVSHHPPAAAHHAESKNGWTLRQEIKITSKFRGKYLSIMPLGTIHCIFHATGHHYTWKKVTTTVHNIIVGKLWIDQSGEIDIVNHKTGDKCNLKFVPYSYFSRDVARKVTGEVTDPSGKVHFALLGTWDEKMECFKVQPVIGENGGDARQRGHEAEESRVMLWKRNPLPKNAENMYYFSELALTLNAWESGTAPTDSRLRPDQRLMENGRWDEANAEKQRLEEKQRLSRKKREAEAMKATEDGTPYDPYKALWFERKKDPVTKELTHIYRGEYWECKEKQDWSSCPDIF

PC-3 = assay: cells; details: Homo sapiens, PC-3, 72 h
Description: Cytotoxicity against human PC-3 cells assessed as inhibition of cell proliferation incubated for 72 hrs by celltiter-glo assay

IC50 at 72 h (in vitro [1]): 0.4 µM
IC50 at 72 h (in vitro [2]): 0.1 µM
IC50 (A549): 0.5 µM
IC50 (MCF7): 1 µM
IC50 at 72 h (in vitro [3]): 0.3 µM
IC50 (MDA-MB-231): 0.3 µM
Kd [4]: 0.022 µM
IC50 (PC-3): 0.3 µM
Compound: CC(C)=CCc1c(O)cc(/C=C/c2cc(O)c3c(c2)C[C@@H]2C(C)(C)[C@H](O)CC[C@@]2(C)O3)cc1O [SCHWEINFURTHIN G]
